Assay results reported in US11427549B2, “Pyrimidinyloxy benzo-fused compounds as herbicides” (FMC Corporation, priority 2017, dated 2022).

Assays:
[1] = system: kochia (Kochia scoparia); test: Test A preemergence, kochia; assay type: in vivo; details: Bassia scoparia, pre-emergence, 240 h, 0 to 100 scale (0 no effect, 100 complete control), read-out: Plant response rating, Kochia; for pest or weed control at 31 g/ha: 31 g ai/ha; for pest or weed control at 125 g/ha: 125 g ai/ha
[2] = system: pigweed (Amaranthus retroflexus); test: Test A preemergence, pigweed; assay type: in vivo; details: Amaranthus retroflexus, pre-emergence, 240 h, 0 to 100 scale (0 no effect, 100 complete control), read-out: Plant response rating, Pigweed; for pest or weed control at 31 g/ha: 31 g ai/ha; for pest or weed control at 125 g/ha: 125 g ai/ha
[3] = system: wheat (Triticum aestivum); test: Test A postemergence, wheat; assay type: in vivo; details: Triticum aestivum, post-emergence, 240 h, 0 to 100 scale (0 no effect, 100 complete control), read-out: Plant response rating, Wheat; for plant injury at 31 g/ha: 31 g ai/ha; for plant injury at 125 g/ha: 125 g ai/ha
[4] = system: galium (catchweed bedstraw, Galium aparine); test: Test A postemergence, galium; assay type: in vivo; details: Galium, post-emergence, 240 h, 0 to 100 scale (0 no effect, 100 complete control), read-out: Plant response rating, Galium; for pest or weed control at 31 g/ha: 31 g ai/ha; for pest or weed control at 125 g/ha: 125 g ai/ha
[5] = system: blackgrass (Alopecurus myosuroides); test: Test A postemergence, blackgrass; assay type: in vivo; details: Alopecurus myosuroides, post-emergence, 240 h, 0 to 100 scale (0 no effect, 100 complete control), read-out: Plant response rating, Blackgrass; for pest or weed control at 31 g/ha: 31 g ai/ha; for pest or weed control at 125 g/ha: 125 g ai/ha
[6] = system: rice (Oryza sativa); test: Test B flooded paddy test, rice; details: Oryza sativa, read-out: Plant response rating, Rice (0 to 100 scale, 0 is no effect, 100 is complete control)
[7] = system: ducksalad (Heteranthera limosa); test: Test B flooded paddy test, ducksalad; details: Heteranthera limosa, read-out: Plant response rating, Ducksalad (0 to 100 scale, 0 is no effect, 100 is complete control)
[8] = system: pigweed (Amaranthus retroflexus); test: Test A postemergence, pigweed; assay type: in vivo; details: Amaranthus retroflexus, post-emergence, 240 h, 0 to 100 scale (0 no effect, 100 complete control), read-out: Plant response rating, Pigweed; for pest or weed control at 31 g/ha: 31 g ai/ha; for pest or weed control at 125 g/ha: 125 g ai/ha
[9] = system: kochia (Kochia scoparia); test: Test A postemergence, kochia; assay type: in vivo; details: Bassia scoparia, post-emergence, 240 h, 0 to 100 scale (0 no effect, 100 complete control), read-out: Plant response rating, Kochia; for pest or weed control at 31 g/ha: 31 g ai/ha; for pest or weed control at 125 g/ha: 125 g ai/ha
[10] = system: barnyardgrass (Echinochloa crus-galli); test: Test A preemergence, barnyardgrass; assay type: in vivo; details: Echinochloa crus-galli, pre-emergence, 240 h, 0 to 100 scale (0 no effect, 100 complete control), read-out: Plant response rating, Barnyardgrass; for pest or weed control at 31 g/ha: 31 g ai/ha; for pest or weed control at 125 g/ha: 125 g ai/ha
[11] = system: ragweed (common ragweed, Ambrosia elatior); test: Test A postemergence, ragweed; assay type: in vivo; details: Ambrosia artemisiifolia, post-emergence, 240 h, 0 to 100 scale (0 no effect, 100 complete control), read-out: Plant response rating, Ragweed; for pest or weed control at 31 g/ha: 31 g ai/ha; for pest or weed control at 125 g/ha: 125 g ai/ha
[12] = system: corn (Zea mays); test: Test A postemergence, corn; assay type: in vivo; details: Zea mays, post-emergence, 240 h, 0 to 100 scale (0 no effect, 100 complete control); for Corn plant response rating (crop injury, 0 = no effect, 100 = complete kill) at 31 g/ha: 31 g ai/ha; for Corn plant response rating (crop injury, 0 = no effect, 100 = complete kill) at 125 g/ha: 125 g ai/ha
[13] = system: ryegrass, Italian (Italian ryegrass, Lolium multiflorum); test: Test A postemergence, ryegrass, Italian; assay type: in vivo; details: Lolium multiflorum, post-emergence, 240 h, 0 to 100 scale (0 no effect, 100 complete control), read-out: Plant response rating, Ryegrass, Italian; for pest or weed control at 31 g/ha: 31 g ai/ha; for pest or weed control at 125 g/ha: 125 g ai/ha
[14] = system: barnyardgrass (Echinochloa crus-galli); test: Test A postemergence, barnyardgrass; assay type: in vivo; details: Echinochloa crus-galli, post-emergence, 240 h, 0 to 100 scale (0 no effect, 100 complete control), read-out: Plant response rating, Barnyardgrass; for pest or weed control at 31 g/ha: 31 g ai/ha; for pest or weed control at 125 g/ha: 125 g ai/ha
[15] = system: ryegrass, Italian (Italian ryegrass, Lolium multiflorum); test: Test A preemergence, ryegrass, Italian; assay type: in vivo; details: Lolium multiflorum, pre-emergence, 240 h, 0 to 100 scale (0 no effect, 100 complete control), read-out: Plant response rating, Ryegrass, Italian; for pest or weed control at 31 g/ha: 31 g ai/ha; for pest or weed control at 125 g/ha: 125 g ai/ha
[16] = system: ragweed (common ragweed, Ambrosia elatior); test: Test A preemergence, ragweed; assay type: in vivo; details: Ambrosia artemisiifolia, pre-emergence, 240 h, 0 to 100 scale (0 no effect, 100 complete control), read-out: Plant response rating, Ragweed; for pest or weed control at 31 g/ha: 31 g ai/ha; for pest or weed control at 125 g/ha: 125 g ai/ha
[17] = system: barnyardgrass (Echinochloa crus-galli); test: Test B flooded paddy test, barnyardgrass; details: Echinochloa crus-galli, read-out: Plant response rating, Barnyardgrass (0 to 100 scale, 0 is no effect, 100 is complete control)

Row | Compound | pest or weed control at 31 g/ha [1] | pest or weed control at 125 g/ha [1] | pest or weed control at 31 g/ha [2] | pest or weed control at 125 g/ha [2] | plant injury at 31 g/ha [3] | plant injury at 125 g/ha [3] | pest or weed control at 31 g/ha [4] | pest or weed control at 125 g/ha [4] | pest or weed control at 31 g/ha [5] | pest or weed control at 125 g/ha [5] | plant injury at 250 g/ha [6] | pest or weed control at 250 g/ha [7] | pest or weed control at 31 g/ha [8] | pest or weed control at 125 g/ha [8] | pest or weed control at 31 g/ha [9] | pest or weed control at 125 g/ha [9] | pest or weed control at 31 g/ha [10] | pest or weed control at 125 g/ha [10] | pest or weed control at 31 g/ha [11] | pest or weed control at 125 g/ha [11] | other results
1 | O=C1O[C@H](CCC(F)(F)F)c2c(Oc3ncc(Cl)cn3)cccc21 [Compound 19, (3R)-4-[(5-Chloro-2-pyrimidinyl)oxy]-3-(3,3,3-trifluoropropyl)-1(3H)-isobenzofuranone] | 90% | 100% | 100% | 100% | 20% | 100% | 90% | 100% | 100% | 100% | 50% | 100% | 100% | 100% | 80% | 100% | 80% | 100% | 30% | 70% | Corn plant response rating (crop injury, 0 = no effect, 100 = complete kill) at 31 g/ha [12]: 40%; Corn plant response rating (crop injury, 0 = no effect, 100 = complete kill) at 125 g/ha [12]: 70%; pest or weed control at 31 g/ha [13]: 80%; pest or weed control at 125 g/ha [13]: 100%; pest or weed control at 31 g/ha [14]: 50%; pest or weed control at 125 g/ha [14]: 100%; pest or weed control at 31 g/ha [15]: 10%; pest or weed control at 125 g/ha [15]: 90%; pest or weed control at 31 g/ha [16]: 0%; pest or weed control at 125 g/ha [16]: 60%; pest or weed control at 250 g/ha [17]: 60%
2 | O=C1Cc2cccc(Oc3ncc(Cl)cn3)c2C(CCCC(F)(F)F)O1 (stereo not shown) [Compound 17, 8-[(5-Chloro-2-pyrimidinyl)oxy]-1,4-dihydro-1-(4,4,4-trifluorobutyl)-3H-2-benzopyran-3-one] | 0% | 60% | 60% | 100% | 0% | 10% | 40% | 90% | 20% | 50% | 0% | 0% | 50% | 70% | 30% | 70% | 10% | 50% | 10% | 10% | Corn plant response rating (crop injury, 0 = no effect, 100 = complete kill) at 31 g/ha [12]: 20%; Corn plant response rating (crop injury, 0 = no effect, 100 = complete kill) at 125 g/ha [12]: 20%; pest or weed control at 31 g/ha [13]: 0%; pest or weed control at 125 g/ha [13]: 10%; pest or weed control at 31 g/ha [14]: 10%; pest or weed control at 125 g/ha [14]: 70%; pest or weed control at 31 g/ha [15]: 0%; pest or weed control at 125 g/ha [15]: 10%; pest or weed control at 31 g/ha [16]: 0%; pest or weed control at 125 g/ha [16]: 0%; pest or weed control at 250 g/ha [17]: 0%
3 | O=C1OCc2cccc(Oc3ncc(Cl)cn3)c2C1CCC(F)(F)F (stereo not shown) [Compound 29, 5-[(5-Chloro-2-pyrimidinyl)oxy]-1,4-dihydro-4-(3,3,3-trifluoropropyl)-3H-2-benzopyran-3-one] | 0% | 10% | 0% | 80% | 0% | 10% | 20% | 50% | 30% | 30% | 0% | 0% | 30% | 70% | 20% | 60% | 0% | 10% | 10% | 30% | Corn plant response rating (crop injury, 0 = no effect, 100 = complete kill) at 31 g/ha [12]: 10%; Corn plant response rating (crop injury, 0 = no effect, 100 = complete kill) at 125 g/ha [12]: 30%; pest or weed control at 31 g/ha [13]: 0%; pest or weed control at 125 g/ha [13]: 30%; pest or weed control at 31 g/ha [14]: 0%; pest or weed control at 125 g/ha [14]: 30%; pest or weed control at 31 g/ha [15]: 0%; pest or weed control at 125 g/ha [15]: 0%; pest or weed control at 31 g/ha [16]: 0%; pest or weed control at 125 g/ha [16]: 10%; pest or weed control at 250 g/ha [17]: 0%
4 | FC(F)(F)CC[C@@H]1OCc2cccc(Oc3ncc(Cl)cn3)c21 [Compound 21, 5-Chloro-2-[[(3S)-1,3-dihydro-3-(3,3,3-trifluoropropyl)-4-isobenzofuranyl]oxy]-pyrimidine] | 0% | 0% | 0% | 0% | 0% | 0% | 10% | 30% | 10% | 30% | 0% | 70% | 20% | 50% | 20% | 60% | 0% | 20% | 0% | 10% | Corn plant response rating (crop injury, 0 = no effect, 100 = complete kill) at 31 g/ha [12]: 0%; Corn plant response rating (crop injury, 0 = no effect, 100 = complete kill) at 125 g/ha [12]: 20%; pest or weed control at 31 g/ha [13]: 0%; pest or weed control at 125 g/ha [13]: 0%; pest or weed control at 31 g/ha [14]: 0%; pest or weed control at 125 g/ha [14]: 20%; pest or weed control at 31 g/ha [15]: 0%; pest or weed control at 125 g/ha [15]: 0%; pest or weed control at 31 g/ha [16]: 0%; pest or weed control at 125 g/ha [16]: 0%; pest or weed control at 250 g/ha [17]: 0%
